Laboratory results taken from patent US10307413B2, “Tetrahydro- and dihydro-isoquinoline PRMT5 inhibitors and uses thereof” (Epizyme, Inc., priority 2013, dated 2019).
Read-outs that look alike come from different tables or passages of the source.

Columns and labels:
[1] = target: PRMT5/MEP50 (Homo sapiens (Human), UniProt O14744); test: PRMT5 Biochemical Assay (PRMT5/MEP50 enzyme assay on peptide substrate, 3H-SAM Flashplate); details: PRMT5 biochemical assay
Method in brief: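 Radiometric methylation of a biotin-tagged H4(1-15) peptide by human PRMT5/MEP50 from baculovirus/Sf9, with ³H-SAM incorporation read on streptavidin Flashplates. Buffer: Bicine pH 7.6, TCEP, BSG, Tween20; compound preincubated 30 min at 25 °C; stopped with 600 µM final unlabeled SAM. DMSO and SAH controls; IC50 from fitted % inhibition.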

[2] = test system: Z-138 cell line; test: Z-138 Proliferation Assay (Cell Titer Glo, 5 days); type: cell-based; details: Homo sapiens, read-out: Proliferation EC50
Method in brief: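 Viability via CellTiter-Glo luminescence (ATP) after 5-day incubation at 37 °C, 5% CO2. Compounds tested in triplicate, nine 3-fold steps, highest final concentration 20 μM in 0.2% DMSO; 50% inhibitory concentration by 4-parameter fit of normalized curves.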

[3] = test system: symmetric di-methyl arginine in Z-138 cells; test: Z-138 Methylation Assay (In Cell Western for symmetric di-methyl arginine and DNA content); type: cell-based; details: Homo sapiens, In Cell Western methylation, read-out: ICW EC50
Method in brief: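 In-cell western: symmetric di-methyl arginine signal ratioed to DRAQ5 DNA content after 96 h compound exposure of Z-138 cells seeded at 50,000 cells/mL.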

[4] = 120 h, Z-138 cells, 5 days, Cell Titer Glo

Chain of PRMT5/MEP50 (O14744 other isoform, or with tags, fused parts or gaps): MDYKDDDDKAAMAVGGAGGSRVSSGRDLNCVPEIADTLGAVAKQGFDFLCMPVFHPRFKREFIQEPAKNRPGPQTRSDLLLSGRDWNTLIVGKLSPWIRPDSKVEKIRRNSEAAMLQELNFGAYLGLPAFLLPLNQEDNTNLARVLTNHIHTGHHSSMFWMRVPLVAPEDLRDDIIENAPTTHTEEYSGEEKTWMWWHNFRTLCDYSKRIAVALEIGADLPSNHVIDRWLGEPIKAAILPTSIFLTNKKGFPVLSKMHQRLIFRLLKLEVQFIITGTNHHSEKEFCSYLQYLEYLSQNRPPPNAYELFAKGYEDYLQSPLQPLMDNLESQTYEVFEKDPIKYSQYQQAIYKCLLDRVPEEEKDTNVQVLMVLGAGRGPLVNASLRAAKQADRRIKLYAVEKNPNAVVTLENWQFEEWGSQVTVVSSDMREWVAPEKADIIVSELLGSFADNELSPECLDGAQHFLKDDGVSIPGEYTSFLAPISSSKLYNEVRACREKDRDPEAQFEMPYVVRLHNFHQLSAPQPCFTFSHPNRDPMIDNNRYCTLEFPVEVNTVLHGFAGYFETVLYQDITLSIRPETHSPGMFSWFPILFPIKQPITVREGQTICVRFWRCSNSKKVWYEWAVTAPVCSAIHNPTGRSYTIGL
Chain of PRMT5/MEP50 (Q9BQA1 other isoform, or with tags, fused parts or gaps partner): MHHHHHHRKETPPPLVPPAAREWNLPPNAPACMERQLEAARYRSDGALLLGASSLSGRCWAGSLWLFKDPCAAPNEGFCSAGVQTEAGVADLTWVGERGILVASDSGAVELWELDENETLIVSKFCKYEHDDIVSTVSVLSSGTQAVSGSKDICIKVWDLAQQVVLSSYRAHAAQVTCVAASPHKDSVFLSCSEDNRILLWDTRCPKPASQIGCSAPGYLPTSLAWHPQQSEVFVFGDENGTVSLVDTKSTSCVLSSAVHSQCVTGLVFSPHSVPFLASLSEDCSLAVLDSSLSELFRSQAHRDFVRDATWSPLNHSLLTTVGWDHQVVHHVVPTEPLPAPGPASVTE

| Structure (SMILES) | IC50 [1] [nM] | EC50 [2, 4] [nM] | EC50 [3] [nM] | EC50 ([2]; Z-138, 120 h) [nM] |
| --- | --- | --- | --- | --- |
| O=C(NC[C@H](O)CN1CCc2ccccc2C1)c1ccnc(NC2CN(C(=O)C3CCC3)C2)c1 [Compound 530] | < 100 | < 100 | < 100 | – |
| COCC(=O)N1CC(Nc2cc(C(=O)NC[C@H](O)CN3CCc4ccccc4C3)ncn2)C1 [Compound 531] | < 100 | 101 to 1000 | < 100 | – |
| NC(=O)CN1CCC(Nc2cc(C(=O)NC[C@H](O)CN3CCc4ccccc4C3)ncn2)CC1 [Compound 532] | < 100 | 101 to 1000 | < 100 | – |
| CNC(=O)CN1CCC(Nc2cc(C(=O)NC[C@H](O)CN3CCc4ccccc4C3)ncn2)CC1 [Compound 533] | < 100 | < 100 | < 100 | – |
| CC(NC(=O)c1cc(NC2CCNCC2)ncn1)C(O)CN1CCc2ccccc2C1 (stereo not drawn) [Compound 534] | 101 to 1000 | > 5000 | > 1000 | – |
| CC(NC(=O)c1cc(NC2CCN(C)CC2)ncn1)C(O)CN1CCc2ccccc2C1 (stereo not drawn) [Compound 535] | 101 to 1000 | > 5000 | 101 to 1000 | – |
| CC(=O)N1CCC(Nc2cc(C(=O)NC(C)C(O)CN3CCc4ccccc4C3)ncn2)CC1 (stereo not drawn) [Compound 536] | < 100 | 101 to 1000 | < 100 | – |
| COC(CNC(=O)c1cc(NC2CCNCC2)ncn1)CN1CCc2ccccc2C1 (stereo not drawn) [Compound 538] | 1000 to 10000 | > 5000 | > 1000 | – |
| COC(CNC(=O)c1cc(NC2CCN(C)CC2)ncn1)CN1CCc2ccccc2C1 (stereo not drawn) [Compound 540] | 1000 to 10000 | > 5000 | > 1000 | – |
| COC(CNC(=O)c1cc(NC2CCN(C(C)=O)CC2)ncn1)CN1CCc2ccccc2C1 (stereo not drawn) [Compound 542] | 101 to 1000 | > 5000 | 101 to 1000 | – |
| O=C(NC[C@H](O)CN1CCc2ccccc2C1)c1cnnc(NC2CCOC2)c1 (stereo partly drawn) [Compound 544] | < 100 | 101 to 1000 | < 100 | – |
| O=C(NC[C@H](O)CN1CCc2ccccc2C1)c1cnnc(NC2COC2)c1 [Compound 545] | < 100 | 1000 to 10000 | < 100 | – |
| CC(=O)N1CC(Nc2cc(C(=O)NC[C@H](O)CN3CCc4ccccc4C3)nc(C(C)(C)C)n2)C1 [Compound 546] | < 100 | < 100 | < 100 | – |
| O=C(NC[C@H](O)CN1CCc2ccccc2C1)c1cc(NC2COC2)nc(NC2COC2)n1 [Compound 547] | < 100 | < 100 | < 100 | – |
| O=C(NC[C@H](O)CN1CCc2ccccc2C1)C1=CC2=N[C@H](CO)CN2C=N1 [Compound 548] | 101 to 1000 | > 5000 | > 1000 | – |
| O=C(NC[C@H](O)CN1CCc2ccccc2C1)c1cc(NC2CCNCC2)ccn1 [Compound 549] | < 100 | > 5000 | 101 to 1000 | – |
| COCCN1CCC(Nc2ccnc(C(=O)NC[C@H](O)CN3CCc4ccccc4C3)c2)CC1 [Compound 550] | < 100 | 1000 to 10000 | < 100 | – |
| CC(=O)N1CCC(Nc2ccnc(C(=O)NC[C@H](O)CN3CCc4ccccc4C3)c2)CC1 [Compound 551] | < 100 | < 100 | < 100 | – |
| CC(NC(=O)c1cc(NC2CCN(C(=O)C3CC3)CC2)ncn1)C(O)CN1CCc2ccccc2C1 (stereo not drawn) [Compound 552] | < 100 | 101 to 1000 | < 100 | – |
| COC(CNC(=O)c1cc(NC2CCN(C(=O)C3CC3)CC2)ncn1)CN1CCc2ccccc2C1 (stereo not drawn) [Compound 553] | < 100 | > 5000 | 101 to 1000 | – |
| CSCCNc1cc(C(=O)NC[C@H](O)CN2CCc3ccccc3C2)ncn1 [Compound 554] | < 100 | 101 to 1000 | < 100 | – |

| Structure (SMILES) | IC50 [1] [nM] | EC50 [2, 4] [nM] | EC50 [3] [nM] | EC50 ([2]; Z-138, 120 h) [nM] |
| --- | --- | --- | --- | --- |
| CS(=O)(=O)CCNc1cc(C(=O)NC[C@H](O)CN2CCc3ccccc3C2)ncn1 [Compound 555] | < 100 | 1000 to 10000 | 101 to 1000 | – |
| CCSCCNc1cc(C(=O)NC[C@H](O)CN2CCc3ccccc3C2)ncn1 [Compound 556] | < 100 | – | < 100 | 101 to 1000 |
| O=C(NC[C@H](O)CN1CCc2ccccc2C1)c1cc(NC2CC3(COC3)C2)ncn1 [Compound 557] | < 100 | < 100 | < 100 | – |
| O=C(NC[C@H](O)CN1CCc2ccccc2C1)c1cc(N[C@H]2C[C@H](N3CCOCC3)C2)ncn1 [Compound 558] | < 100 | 101 to 1000 | < 100 | – |
| CO[C@H]1C[C@H](Nc2cc(C(=O)NC[C@H](O)CN3CCc4ccccc4C3)ncn2)C1 [Compound 559] | < 100 | 101 to 1000 | < 100 | – |
| COCCO[C@H]1C[C@@H](Nc2cc(C(=O)NC[C@H](O)CN3CCc4ccccc4C3)ncn2)C1 [Compound 560] | < 100 | 101 to 1000 | < 100 | – |
| COCCN(CCOC)[C@H]1C[C@H](Nc2cc(C(=O)NC[C@H](O)CN3CCc4ccccc4C3)ncn2)C1 [Compound 561] | < 100 | 101 to 1000 | < 100 | – |
| COCCN(CCOC)[C@H]1C[C@@H](Nc2cc(C(=O)NC[C@H](O)CN3CCc4ccccc4C3)ncn2)C1 [Compound 562] | < 100 | 101 to 1000 | < 100 | – |
| CO[C@H]1C[C@@H](Nc2cc(C(=O)NC[C@H](O)CN3CCc4ccccc4C3)ncn2)C1 [Compound 563] | < 100 | 101 to 1000 | < 100 | – |
| CC(=O)N(C)[C@H]1C[C@H](Nc2cc(C(=O)NC[C@H](O)CN3CCc4ccccc4C3)ncn2)C1 [Compound 564] | < 100 | 101 to 1000 | < 100 | – |
| O=C(NC[C@H](O)CN1CCc2ccccc2C1)c1cc(NC2CNC2)ccn1 [Compound 565] | < 100 | 101 to 1000 | < 100 | – |
| O=C(NC[C@H](O)CN1CCc2ccccc2C1)c1cc(NC2CCN(C(=O)C3CCC3)CC2)ccn1 [Compound 566] | < 100 | < 100 | < 100 | – |
| CN(C)C(=O)CN1CCC(Nc2cc(C(=O)NC[C@H](O)CN3CCc4ccccc4C3)ncn2)CC1 [Compound 567] | < 100 | 101 to 1000 | < 100 | – |
| CSCCN1CC(Nc2cc(C(=O)NC[C@H](O)CN3CCc4ccccc4C3)ncn2)C1 [Compound 568] | < 100 | 1000 to 10000 | 101 to 1000 | – |
| CS(=O)(=O)CCN1CCC(Nc2cc(C(=O)NC[C@H](O)CN3CCc4ccccc4C3)ncn2)CC1 [Compound 569] | < 100 | 101 to 1000 | < 100 | – |
| CCSCCN1CCC(Nc2cc(C(=O)NC[C@H](O)CN3CCc4ccccc4C3)ncn2)CC1 [Compound 570] | < 100 | – | < 100 | 1000 to 10000 |
| CC(=O)N1CCC[C@@H](Nc2cc(C(=O)NC[C@H](O)CN3CCc4ccccc4C3)ncn2)C1 [Compound 571] | < 100 | 1000 to 10000 | < 100 | – |
| CC(=O)N1CCC[C@H](Nc2cc(C(=O)NC[C@H](O)CN3CCc4ccccc4C3)ncn2)C1 [Compound 572] | < 100 | 101 to 1000 | < 100 | – |
| CC1c2ccccc2CCN1C[C@@H](O)CNC(=O)c1cc(NC2COC2)ncn1 (stereo partly drawn) [Compound 573] | 101 to 1000 | > 5000 | 101 to 1000 | – |
| CCC(=O)N1CC(Nc2cc(C(=O)NC[C@H](O)CN3CCc4ccccc4C3)ncn2)C1 [Compound 574] | < 100 | < 100 | < 100 | – |
| CN1CC(Nc2ccnc(C(=O)NC[C@H](O)CN3CCc4ccccc4C3)c2)C1 [Compound 575] | < 100 | > 5000 | < 100 | – |
